Biological target: Adenylate kinase 4, mitochondrial (Homo sapiens) (UniProt P27144)
Assay: ligand-induced stabilization of human AK3 (AK4) – biophysical, DSF, SYPRO orange (AID 380)
Details: recombinant protein, DSF SYPRO orange thermal shift; at 5 µM; protein 1 µM; buffer 10 mM HEPES; hits give high values

Sequence of Adenylate kinase 4, mitochondrial (Homo sapiens) (P27144 whole entry, looked up): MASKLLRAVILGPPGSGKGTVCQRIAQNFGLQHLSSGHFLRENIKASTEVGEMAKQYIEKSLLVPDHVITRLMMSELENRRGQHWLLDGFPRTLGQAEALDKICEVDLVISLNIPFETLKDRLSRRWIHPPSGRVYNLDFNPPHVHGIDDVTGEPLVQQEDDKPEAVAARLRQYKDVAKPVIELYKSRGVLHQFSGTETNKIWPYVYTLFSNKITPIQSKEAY

Tm shift: 17.2 Celsius
Structure (SMILES): Nc1ncnc2c1ncn2[C@@H]1O[C@H](COP(=O)(O)OP(=O)(O)OP(=O)(O)OP(=O)(O)OP(=O)(O)OC[C@H]2O[C@@H](n3cnc4c(N)ncnc43)[C@H](O)[C@@H]2O)[C@@H](O)[C@H]1O
